“And” between values parts separate entries of the source, which are not always exact repeats. Equal values may be shown once. “Also recorded” adds a separate entry of the source. Read-outs that look alike come from different tables or passages of the source. Marks after values point to notes of the source that are not given here.
Tests used:
[1] = in vivo; cited from earlier work
[2] = tested on: collagen-induced arthritis; conditions: mice, cited from earlier work
[3] = tested on: CFA-induced mono-arthritis pain; experiment: Pain-related posture (spontaneous pain rating score 0-5); format: in vivo, Sprague-Dawley rats; conditions: after CFA, before CBD gel
Text: The abnormal posture of the affected hind limb of each animal was assigned a single score using a subjective pain-related behavioral scale (spontaneous pain rating score 0-5), i.e. 0—normal; 1—curling of the toes, 2—eversion of the paw; 3—partial weight bearing; 4—non-weight bearing and guarding; and 5—avoidance of any contact with the hindlimb (Sluka et al. (1994) Neuroreport 5:109-112).
Baseline parameters (body weight, knee joint temperature, and knee joint circumference) were obtained before the knee injection of rats with CFA. PWL test and exploratory activity testing were also conducted prior to CFA injection. Rats were anesthetized with a short term anesthetic and the left knee joint, cavity was injected with CFA for induction of mono-arthritis. On day 3, the back of each animal was shaved. […] Rats received daily treatments for four consecutive days of either vehicle gel, or CBD gel. Gel was applied to the skin in a templated region on the dorsal surface of the rat and rubbed into the skin for 30 sec to ensure complete coverage. The nitrile template was used to ensure specific area reproducibility. […] Exploratory activity was monitored prior to initial gel application and on the third day post gel application (after 6 h). […] Blood samples were obtained for CBD plasma quantification, and tissues (knee joints, dorsal root ganglia, spinal cord, brain) were collected after perfusion. […]

[4] = tested on: CFA-induced mono-arthritis, secondary thermal hyperalgesia; experiment: Secondary thermal hyperalgesia, paw withdrawal latency (PWL) test; format: in vivo, Sprague-Dawley rats; conditions: for Paw withdrawal latency (PWL), own baseline score: baseline before CFA and CBD
Experimental: Secondary thermal hyperalgesia was assessed with the paw withdrawal latency (PWL) test (Hargreaves et al. (1988) Pain 32: 77-88). PWLs were measured in response to a radiant heat source shone on one hind paw of the animals from beneath a glass top table. A shortened PWL response in animals with knee joint inflammation was indicative of secondary thermal hyperalgesia. Animals were placed in separate plastic cubicles (4×4×10 in) on a glass top table (2 mm thickness of glass) and allowed to adapt to their new environment for 20-30 min before testing. A small movable metal box that focused a high-intensity light beam through an aperture (0.5 cm×0.5 cm) was attached to an on/off switch and a digital timer. The light beam was applied to the plantar surface of the hind paw through the glass until the rat lifted its paw. At that time, the light is switched off and the number of seconds on the digital timer recorded as the PWL (sec). The maximal cut off time for the paw-withdrawal reflex was set to 15 sec (55° C.). […] Both hind paws were tested independently for 5 trials per side with 5-minute intervals between trials. A mean of the 5 trials was calculated for each animal. The PWL tests were performed before knee joint injection as a baseline and 5 times after the CFA injection beginning on day 3 (days 3-7). The examiner was blind from the treatment group of animals.
(§1) Baseline parameters (body weight, knee joint temperature, and knee joint circumference) were obtained before the knee injection of rats with CFA. PWL test and exploratory activity testing were also conducted prior to CFA injection. Rats were anesthetized with a short term anesthetic and the left knee joint, cavity was injected with CFA for induction of mono-arthritis. On day 3, the back of each animal was shaved. […] Rats received daily treatments for four consecutive days of either vehicle gel, or CBD gel. Gel was applied to the skin in a templated region on the dorsal surface of the rat and rubbed into the skin for 30 sec to ensure complete coverage. The nitrile template was used to ensure specific area reproducibility. The PWL test was conducted 4 h after gel application. Exploratory activity was monitored prior to initial gel application and on the third day post gel application (after 6 h). On the final day of gel application after the body and knee joint parameters were obtained and PWL test was conducted, rats were cuthanized by pentobarbital overdose. Blood samples were obtained for CBD plasma quantification, and tissues (knee joints, dorsal root ganglia, spinal cord, brain) were collected after perfusion.
Half of the treated rats were injected with the CFA in the knee joint. Within each group of rats, half received vehicle gel without CBD and the other half received the gel CBD. Four different doses were tested in the rats, 0.6 mg/d, 3.1 mg/d, 6.2 mg/d, or 62.3 mg/d. […] A two-fold lower dose and a ten-fold lower/higher dose (3.1 mg/d, 0.6 mg/d, and 62.3 mg/d) were also investigated. Area of application, amount of gel, and/or concentration of gel was adjusted to achieve the desired doses.

[5] = tested on: CFA intraplantar injection; conditions: rats, 20 mg/kg oral, 7 consecutive days; cited from earlier work
[6] = tested on: CFA-induced knee joint inflammation; experiment: Knee joint circumference in CFA mono-arthritic rats; format: in vivo, Sprague-Dawley rats
[7] = target: CB2 receptor (Homo sapiens, UniProt P34972); conditions: cited from earlier work
Chain of CB2 receptor (P34972 whole entry): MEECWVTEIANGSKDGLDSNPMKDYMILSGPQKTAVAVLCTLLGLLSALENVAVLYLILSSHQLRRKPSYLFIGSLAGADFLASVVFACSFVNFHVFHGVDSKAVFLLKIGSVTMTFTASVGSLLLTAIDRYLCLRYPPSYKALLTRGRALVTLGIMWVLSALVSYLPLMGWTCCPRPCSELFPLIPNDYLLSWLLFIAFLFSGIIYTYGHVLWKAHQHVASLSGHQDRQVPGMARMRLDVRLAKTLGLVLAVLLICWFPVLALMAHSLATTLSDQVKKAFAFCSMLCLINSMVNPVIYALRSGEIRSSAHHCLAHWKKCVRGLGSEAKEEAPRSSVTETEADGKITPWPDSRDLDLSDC

[8] = tested on: carrageenan-induced paw edema; conditions: cited from earlier work
[9] = tested on: CFA-induced knee joint inflammation; experiment: Knee joint temperature in CFA mono-arthritic rats; format: in vivo, Sprague-Dawley rats
[10] = tested on: normal (non-CFA) rats; experiment: Open field exploratory behavioral activity; format: in vivo, Sprague-Dawley rats
Experimental: Exploratory behavioral activity of the rats was monitored using the Flexfield Animal Activity System (San Diego Instruments; San Diego, Calif.) with a Photobeam Activity System software coupled to a computer according to previously published methods by Zhang et al., (2004) Pharmacol Biochem Behav 77: 145-153. Briefly, six main parameters were recorded: rearing events and rearing time, active time, and resting time, total activity (i.e. number of photobeams disturbed in the x-y-z planes while the rat was moving around in the box or involved in stationary movement such as grooming), and distance traveled. Activity testing was conducted in an isolated, temperature controlled area at similar times daily in order to provide consistent results.
as §1

[11] = Plasma CBD concentration after topical gel application (LC/MS); format: in vivo, Sprague-Dawley rats; conditions: rats
Experimental: as §1
50 μL aliquot of plasma collected from cannabidiol dosed rats was added to a siliconized microcentrifuge tube containing 500 μL of 1:1 ACN:ethyl acetate. The plasma/ACN:ethyl acetate sample was vortexed for 30 sec and centrifuged at 10,000×g for 20 min. The supernatant was removed and placed into a clean silanized culture tube and evaporated under nitrogen in a 37° C. water bath. The dried sample was reconstituted with 100 μL of ACN and vortexed for 30 sec, then sonicated for 5 min. […] Standards were prepared by spiking blank plasma samples with respective standard concentrations and extracting the standards similarly to the collected plasma samples.
The LC/MS system used to analyze samples was comprised of a Waters Alliance 2695 pump and autosampler, a Micromass™ ZQ detector, and 996 photodiode array detector with MassLynx™ software (Waters Corp., Milford, Mass.). A Symmetry™ C18 column (150×2.1 mm, 5 μm) with a Sentry Symmetry™ guard column (10×2.1 mm, 3.5 μm) was used with the LC/MS system. The ZQ detector was used with an electrospray ionization (ESI) probe set for single ion monitoring (SIM) for cannabidiol quantification. Analysis was performed in negative mode for m/z 313 [CBD-H]^− (dwell time: 30 sec). Capillary and cone voltage were set at […] and 40 V, respectively. Source block and desolvation temperatures were set at 120° C. and 250° C., respectively. Nitrogen produced from the Nitroflow Lab (Parker Hannifin Corp; Cleveland, Ohio) was used as nebulization and drying gas flow rates of 50 and 450 L/h, respectively. […]

[12] = 0.6 mg/d group, after CFA, before CBD gel
[13] = 3.1 mg/d group, after CFA, before CBD gel
[14] = 3.1 mg/d transdermal CBD gel, Post-CBD, day 4
[15] = 6.2 mg/d group, after CFA, before CBD gel
[16] = 62.3 mg/d group, after CFA, before CBD gel
[17] = CFA + CBD group, baseline before CFA and before CBD

In the case of `CCCCCc1cc(O)c2c(c1)OC(C)(C)[C@@H]1CCC(C)=C[C@@H]21` [THC, Δ^9-tetrahydrocannabinol], the Side effects caused [1] is given as “hypothermia and hypomobility”.

In the case of `C=C(C)C1CCC(C)=CC1c1c(O)cc(CCCCC)cc1O` (stereo not drawn) [CBD, 2-[3-methyl-6-(1-methylethenyl)-2-cyclohexen-1-yl]-5-pentyl-1,3-benzenedi-ol], the “Therapeutic action on established CIA” value ([2]; administered systemically (ip and oral)) is given as “beneficial therapeutic action”, the “Optimal dose for arthritis suppression” value ([2]; i.p. (2.5, 5, 10, 20 mg/kg tested)) is given as 5 mg/kg and the “Optimal dose for arthritis suppression” value ([2]; oral (10, 25, 50 mg/kg tested)) is given as 25 mg/kg. For the same compound, the “Spontaneous pain rating scores [mean ± SD]” value ([3]; 0.6 mg/d group) was 4.0 ± 0.0^b, the “Spontaneous pain rating scores [mean ± SD]” value ([3]; 3.1 mg/d group) was 4.0 ± 0.0^b and the “Paw withdrawal latency (PWL), own baseline score” value ([4]; 6.2 mg/d group) was 10.9 ± 0.3 s. For the same compound, the “Paw withdrawal latency (PWL), own baseline score” value ([4]; 62.3 mg/d group) was 9.3 ± 0.3 s, the “Paw withdrawal latency (PWL)” value ([4]; CFA rats, 0.6 mg/d CBD gel, day 2 of application, 4 h after application) was 7.8 ± 0.5 s and the “Improvement of PWL scores” value ([4]; CFA rats, 0.6 mg/d and 3.1 mg/d CBD, day 4) was “did not have improved PWL scores”. For the same compound, the “Paw withdrawal latency (PWL)” value ([4]; CFA rats, 3.1 mg/d CBD gel, day 2 of application) was 7.6 ± 0.8 s, the “Paw withdrawal latency (PWL)” value ([4]; CFA rats, 6.2 mg/d CBD gel, day 2 of application, p<0.05 vs vehicle gel) was 9.2 ± 0.7 s and the “Paw withdrawal latency (PWL)” value ([4]; CFA rats, 6.2 mg/d CBD gel, day 4) was 9.2 ± 0.3 s. For the same compound, the “Change in PWL vs CFA rats receiving vehicle gel” value ([4]; CFA rats, 6.2 mg/d, 4 h (d 1) post CBD dosing, p<0.05) was “improvement”, the “Paw withdrawal latency (PWL)” value ([4]; CFA rats, 62.3 mg/d CBD gel, day 2 of application, p<0.05 vs vehicle gel) was 9.1 ± 0.2 s and the “Paw withdrawal latency (PWL)” value ([4]; CFA rats, 62.3 mg/d CBD gel, day 4) was 9.3 ± 0.2 s. The “Paw withdrawal latency (PWL)” value ([4]; normal controls, 6.2 mg/d CBD gel, day 4) was 10.6 ± 0.3 s, the “Paw withdrawal latency (PWL)” value ([4]; normal rats, 0.6 mg/d CBD gel, day 2) was 9.9 ± 0.2 s and the “Paw withdrawal latency (PWL)” value ([4]; normal rats, 3.1 mg/d CBD gel, day 2) was 9.9 ± 0.3 s. The “Paw withdrawal latency (PWL)” value ([4]; normal rats, 6.2 mg/d CBD gel, day 2) was 10.1 ± 0.9 s, the “Effect on PWL in normal rats” value ([4]; normal rats, any CBD dose (0.6, 3.1, 6.2 mg/d)) was “not affected; also recorded: no effect” and the “Decrease in thermal and mechanical withdrawal latency” value [5] was 50%. The “Knee joint circumference [mean ± SD]” value [6, 12] was 7.5 ± 0.3^b cm, the “Knee joint circumference [mean ± SD]” value ([6]; 0.6 mg/d transdermal CBD gel, Post-CBD, four consecutive days (day 4)) was 7.0 ± 0.3^b cm and the “Knee joint circumference [mean ± SD]” value [6, 13] was 7.4 ± 0.4^b cm. The “Knee joint circumference [mean ± SD]” value [6, 14] was 7.1 ± 0.3^b cm, the “Knee joint circumference [mean ± SD]” value [6, 15] was 7.2 ± 0.3^b cm and the “Knee joint circumference [mean ± SD]” value ([6]; 6.2 mg/d transdermal CBD gel, Post-CBD, day 4, p<0.05 vs vehicle gel) was 6.6±0.2 cm and 6.6 ± 0.2^b* cm. For the same compound, the “Knee joint circumference [mean ± SD]” value [6, 16] was 7.2 ± 0.0^a cm, the “Knee joint circumference [mean ± SD]” value ([6]; 62.3 mg/d transdermal CBD gel, Post-CBD, day 4, p<0.05 vs vehicle gel) was 6.6±0.1 cm and 6.6 ± 0.1^a* cm and the “Knee joint circumference [mean ± SD]” value [6, 17] was 5.7±0.2 cm and 5.7 ± 0.2^c cm. For the same compound, the “Optimal treatment dose for knee inflammation” value ([6]; transdermal gel, no further improvement with 62.3 mg/d) was 6.2 mg/day, the “Binding affinity for CB2 receptor” value [7] was “little binding affinity” and the “Effect on hyperalgesia (PWL)” value ([8]; mice, 5 and 7.5 mg/kg oral, by 6 h) was “eliminated hyperalgesia”. For the same compound, the “Effect on hyperalgesia (PWL)” value ([8]; mice, 10, 20 and 40 mg/kg oral, 3 h post carrageenan) was “elimination of hyperalgesia”, the “Knee joint temperature [mean ± SD]” value [9, 12] was 31.7 ± 1.7^b ° C and the “Knee joint temperature [mean ± SD]” value ([9]; 0.6 mg/d transdermal CBD gel, Post-CBD, day 4) was 31.2 ± 0.7^b ° C. For the same compound, the “Knee joint temperature [mean ± SD]” value [9, 13] was 30.8 ± 0.9^b ° C, the “Knee joint temperature [mean ± SD]” value [9, 14] was 30.6 ± 0.6^b ° C and the “Knee joint temperature [mean ± SD]” value [9, 15] was 32.1 ± 1.8^b ° C. For the same compound, the “Knee joint temperature [mean ± SD]” value ([9]; 6.2 mg/d transdermal CBD gel, Post-CBD, day 4) was 31.7 ± 2.1^b ° C, the “Knee joint temperature [mean ± SD]” value [9, 16] was 34.1 ± 0.8^a ° C and the “Knee joint temperature [mean ± SD]” value ([9]; 62.3 mg/d transdermal CBD gel, Post-CBD, day 4) was 30.2 ± 0.9^a ° C. The “Difference in knee joint temperature among the treatment groups” value ([9]; CBD gel doses vs vehicle gel, p>0.05) was “No knee joint temperature differences; also recorded: no significant differences”, the “Knee joint temperature [mean ± SD]” value [9, 17] was 33.4 ± 0.2^a ° C and the Distance traveled ([10]; 0.6 mg/d CBD gel, post-dose, p<0.05 vs pre-dose) was 1757.1±299.2 cm. For the same compound, the Distance traveled ([10]; 0.6 mg/d group, pre-dose) was 2245.5±367.4 cm, the Rearing events ([10]; 3.1 mg/d group, pre-dose) was 284.0±31.1 and the Rearing time ([10]; 3.1 mg/d group, pre-dose) was 189.1±20.7. For the same compound, the “Exploratory activity, six parameters (rearing events, rearing time, total beams broken, distance traveled, active time, resting time)” value ([10]; among dose groups and pre- vs post-dose, p>0.05, exception distance traveled at 0.6 mg/d) was “No significant (p>0.05) differences”, the “Plasma CBD concentration” value ([11]; topical gel 0.6 mg/d, four consecutive days) was 3.8 ± 1.4 ng/mL and the “Plasma CBD concentration” value ([11]; topical gel 3.1 mg/d) was 17.5 ± 4.4 ng/mL. For the same compound, the “Plasma CBD concentration” value ([11]; topical gel 6.2 mg/d) was 33.3 ± 9.7 ng/mL and the “Plasma CBD concentration” value ([11]; topical gel 62.3 mg/d (10% w/w gel), not in linear profile) was 1,629.9±379.0 ng/mL.

— US20120202892A1, “Cannabinoid-Containing Compositions and Methods for Their Use” (University of Kentucky Research Foundation, priority 2008, published 2012)
